Measurements taken from PubChem BioAssay (NCI).
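Dose response: 5 concentrations. Exposure: 48 h. Format: 96-well plates. Endpoint: linear interpolation; highest concentration if not reached. GI50 is the concentration that inhibits growth by half. Definition used: TGI = concentration required for complete inhibition of growth.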

Key:
Test in all cases: NCI tumour cell line growth inhibition, 48 h
SR leukemia = tested on: SR leukemia
DU-145 prostate = tested on: DU-145 prostate
LOX IMVI melanoma = tested on: LOX IMVI melanoma
COLO 205 colon = tested on: COLO 205 colon
SK-MEL-2 melanoma = tested on: SK-MEL-2 melanoma
BT-549 breast = tested on: BT-549 breast
HT29 colon = tested on: HT29 colon
MDA-MB-231 breast = tested on: MDA-MB-231 breast
HCT-116 colon = tested on: HCT-116 colon
NCI-H226 lung = tested on: NCI-H226 lung
SK-MEL-28 melanoma = tested on: SK-MEL-28 melanoma
U251 CNS = tested on: U251 CNS
CAKI-1 renal = tested on: CAKI-1 renal
OVCAR-5 ovarian = tested on: OVCAR-5 ovarian
T-47D breast = tested on: T-47D breast
HCC-2998 colon = tested on: HCC-2998 colon
OVCAR-3 ovarian = tested on: OVCAR-3 ovarian
UO-31 renal = tested on: UO-31 renal
MDA-MB-435 = tested on: MDA-MB-435
A498 renal = tested on: A498 renal
NCI-H23 lung = tested on: NCI-H23 lung
SF-295 CNS = tested on: SF-295 CNS
SK-OV-3 ovarian = tested on: SK-OV-3 ovarian
NCI-H460 lung = tested on: NCI-H460 lung
SW-620 colon = tested on: SW-620 colon
IGROV1 ovarian = tested on: IGROV1 ovarian
MCF7 breast = tested on: MCF7 breast
SF-539 CNS = tested on: SF-539 CNS

Question: Which GI50 (SR leukemia) does the source give for CCOCCOC[C@H]1CCCN(c2ccnc3sc(C(N)=O)c(N)c23)C1 here?
Answer: 11 µM

Question: What about the TGI (SR leukemia) of the same compound?
Answer: > 100 µM

Question: And the GI50 (DU-145 prostate)?
Answer: 73.1 µM

Question: And the TGI (DU-145 prostate)?
Answer: > 100 µM

Question: What about the GI50 (LOX IMVI melanoma) of the same compound?
Answer: 29.3 µM

Question: What about the TGI (LOX IMVI melanoma) of the same compound?
Answer: > 100 µM

Question: What about the GI50 (COLO 205 colon) of the same compound?
Answer: 59.7 µM

Question: And the TGI (COLO 205 colon)?
Answer: > 100 µM

Question: And the GI50 (SK-MEL-2 melanoma)?
Answer: 11.1 µM

Question: What about the TGI (SK-MEL-2 melanoma) of the same compound?
Answer: > 100 µM

Question: What about the GI50 (BT-549 breast) of the same compound?
Answer: 9.35 µM

Question: What about the TGI (BT-549 breast) of the same compound?
Answer: > 100 µM

Question: What about the GI50 (HT29 colon) of the same compound?
Answer: > 100 µM

Question: What about the TGI (HT29 colon) of the same compound?
Answer: > 100 µM

Question: What about the GI50 (MDA-MB-231 breast) of the same compound?
Answer: 58.7 µM

Question: And the TGI (MDA-MB-231 breast)?
Answer: > 100 µM

Question: And the GI50 (HCT-116 colon)?
Answer: 14.4 µM

Question: And the TGI (HCT-116 colon)?
Answer: > 100 µM

Question: What about the GI50 (NCI-H226 lung) of the same compound?
Answer: > 100 µM

Question: And the TGI (NCI-H226 lung)?
Answer: > 100 µM

Question: What about the GI50 (SK-MEL-28 melanoma) of the same compound?
Answer: 23.5 µM

Question: And the TGI (SK-MEL-28 melanoma)?
Answer: > 100 µM

Question: What about the GI50 (U251 CNS) of the same compound?
Answer: > 100 µM

Question: And the TGI (U251 CNS)?
Answer: > 100 µM

Question: What about the GI50 (CAKI-1 renal) of the same compound?
Answer: 30.5 µM

Question: What about the TGI (CAKI-1 renal) of the same compound?
Answer: > 100 µM

Question: And the GI50 (OVCAR-5 ovarian)?
Answer: > 100 µM

Question: What about the TGI (OVCAR-5 ovarian) of the same compound?
Answer: > 100 µM

Question: And the GI50 (T-47D breast)?
Answer: 3.9 µM

Question: And the TGI (T-47D breast)?
Answer: > 100 µM

Question: What about the GI50 (HCC-2998 colon) of the same compound?
Answer: > 100 µM

Question: What about the TGI (HCC-2998 colon) of the same compound?
Answer: > 100 µM

Question: And the GI50 (OVCAR-3 ovarian)?
Answer: 23.6 µM

Question: And the TGI (OVCAR-3 ovarian)?
Answer: > 100 µM

Question: What about the GI50 (UO-31 renal) of the same compound?
Answer: 15.3 µM

Question: And the TGI (UO-31 renal)?
Answer: > 100 µM

Question: And the GI50 (MDA-MB-435)?
Answer: 29.8 µM

Question: What about the TGI (MDA-MB-435) of the same compound?
Answer: > 100 µM

Question: What about the GI50 (A498 renal) of the same compound?
Answer: > 100 µM

Question: And the TGI (A498 renal)?
Answer: > 100 µM

Question: And the GI50 (NCI-H23 lung)?
Answer: 10.6 µM

Question: What about the TGI (NCI-H23 lung) of the same compound?
Answer: > 100 µM

Question: What about the GI50 (SF-295 CNS) of the same compound?
Answer: 10.4 µM

Question: What about the TGI (SF-295 CNS) of the same compound?
Answer: > 100 µM

Question: And the GI50 (SK-OV-3 ovarian)?
Answer: 40.3 µM

Question: What about the TGI (SK-OV-3 ovarian) of the same compound?
Answer: > 100 µM

Question: What about the GI50 (NCI-H460 lung) of the same compound?
Answer: > 100 µM

Question: And the TGI (NCI-H460 lung)?
Answer: > 100 µM

Question: What about the GI50 (SW-620 colon) of the same compound?
Answer: > 100 µM

Question: What about the TGI (SW-620 colon) of the same compound?
Answer: > 100 µM

Question: And the GI50 (IGROV1 ovarian)?
Answer: 35 µM

Question: What about the TGI (IGROV1 ovarian) of the same compound?
Answer: > 100 µM

Question: And the GI50 (MCF7 breast)?
Answer: 25.1 µM

Question: And the TGI (MCF7 breast)?
Answer: > 100 µM

Question: What about the GI50 (SF-539 CNS) of the same compound?
Answer: > 100 µM

Question: And the TGI (SF-539 CNS)?
Answer: > 100 µM
